Series [1] in a line: Toxicity test, LD50 mice p.os. The conditions noted are these: mouse, in vivo, po. From the text:
|Compound LD50 mice p. os in mg/kg

Series [2] can be described thus: Anti-pentylenetetrazol. Format: in vivo. The conditions noted are these: oral, 30 minutes before pentylenetetrazol treatment 130 mg/kg s.c. Here is the method:
(§1) The pharmacologic activity of the compounds of the invention has been assessed by the following classical tests which are known to indicate useful therapeutic activities:
Anti-pentylenetetrazol (L. O. Randall, W. Schallek, G. A. Heise, E. F. Keith and R. Bagdon: J. Pharmacol. Exp. Therapeutics, 129, 163-171, 1960).
(§2) Main neuropharmacological effects of substituted benzodiazepine in oral
^a 30 minutes before pentylenetetrazol treatment 130 mg/kg s.c.

The nature of series [3]: Anti-ECS. Format: in vivo. As to conditions: oral, 60 minutes before ECS. Here is the method:
as §1
ECS (E. A. Swinyard, W. C. Brown and L. S. Goodman: J. Pharmacol. Exp. Therapeutics, 106, 319-330, 1952.)
as §2
^b 60 minutes before ECS.

Series [4] is described as follows: Analgesic. Type of series: in vivo. The conditions noted are these: oral, prolongs reaction time 50 percent of control group in 50 percent of treated animals, read-out: Analgesic DE50. Here is the method: as §1
Analgesic (N. B. Eddy and D. Leimbach: J. Pharmacol. Exp. Therapeutics, 107, 385-393, 1953.)
as §2
^c at 240 minutes after drug treatment.
^c' at 60 minutes after drug treatment.
^(x) Prolongs reaction time 50 percent of control group in 50 percent

Series [5] is described as follows: Miorelaxation. Type of series: in vivo. The conditions noted are these: oral, reduces "falling time" 50 percent of control group in 50 percent of treated animals, read-out: Miorelaxation DE50. Here is the method: as §1
Miorelaxation (N. W. Dunham and T. S. Miya: J. Am. Pharm. Ass., 46, No. 3, 208-209, 1957.)
as §2
^d at 120 minutes after drug treatment.
^d' at 60 minutes after drug treatment.
^(xx) Reduces "falling time" 50 percent of control group in 50 percen

A short description of series [6]: Spontaneous Motor Activity. Format: in vivo. The conditions noted are these: 0.5 h; oral; 30 minutes period starting 30 minutes after drug treatment; reduces movements counts 50 percent of control activity in group of 4 animals; read-out: Spontaneous Motor Activity DE50. Here is the method: as §1
Spontaneous Motor Activity (W. J. Kinnard and C. J. Carr: J. Pharmacol. Exp. Therapeutics, 121, 354-361, 1957.)
as §2
^e measured in 30 minutes period starting 30 minutes after drug
^(xxx) Reduces movements counts 50 percent of control activity in
group of 4 animals: 5 groups/dose.

[7] abbreviates: convulsions, read-out: Anti-pentylenetetrazol, Convulsions DE50.
The mark [8] stands for this setting: death, read-out: Anti-pentylenetetrazol, Death DE50.
The mark [9] stands for this setting: convulsions, read-out: Anti-ECS, Convulsions DE50.
The mark [10] stands for this setting: death, read-out: Anti-ECS, Death DE50.
The mark [11] stands for this setting: 4 h, at 240 minutes after drug treatment.
Where [12] appears, read: 2 h, at 120 minutes after drug treatment.

Structures are written as SMILES. A value given as a limit tells only on which side of the number the result lay.

`CC(=O)NCCCC(=O)OC1N=C(c2ccccc2)c2cc(Cl)ccc2NC1=O` (centres unmarked) [Example 1, 3-(4-acetamido)butyryl-oxy-7-chloro-1,3-dihydro-5-phenyl-2H-1,4-benzodiazepine-2-one] displayed an LD50 in series [1] of 1500 mg/kg. For the same molecule, the ED50 came to 7 mg/kg in series [2] (setting [7]); 4 mg/kg in series [2] (setting [8]); 38 mg/kg in series [3] (setting [9]); 0.22 mg/kg in series [3] (setting [10]); 26 mg/kg in series [4] (setting [11]); 6.5 mg/kg in series [5] (setting [12]). Also, in series [6], the ED50 amounted to 9 mg/kg.
As for `CC(C)(C)OC(=O)NCCCC(=O)OC1N=C(c2ccccc2)c2cc(Cl)ccc2NC1=O` (centres unmarked) [Example 2, 7-chloro-1,3-dihydro-5-phenyl-3-(4-tertiary-butoxycarbonylamino)butyryloxy-2H-1,4-benzodiazepine-2-one], the LD50 in series [1] was > 1500 mg/kg. Moreover, the ED50 in series [2] (setting [7]) amounted to 14 mg/kg; in series [2] (setting [8]) it was 7 mg/kg; in series [3] (setting [9]), 60 mg/kg; in series [3] (setting [10]), 1 mg/kg; in series [4] (setting [11]), 42 mg/kg; in series [5] (setting [12]) it was 16 mg/kg. Also, the ED50 in series [6] was found to be 2.6 mg/kg.
Consider `CC(=O)NCCCC(=O)OC1N=C(c2ccccc2Cl)c2cc(Cl)ccc2NC1=O` (centres unmarked) [Example 3, 3-(4-acetamido)butyryloxy-7-chloro-5-o-chlorophenyl-1,3-dihydro-2H-1,4-benzodiazepine-2-one], for which the LD50 in series [1] stood at 1200 mg/kg. Besides, the ED50 in series [2] (setting [7]) stood at 2.6 mg/kg; in series [2] (setting [8]), 0.15 mg/kg; in series [3] (setting [9]) it was 4.6 mg/kg; in series [3] (setting [10]), 0.02 mg/kg; in series [4] (setting [11]), 42 mg/kg; in series [5] (setting [12]), 4.2 mg/kg. Besides, in series [6], the ED50 came to 0.18 mg/kg.
`CC(=O)NCCCC(=O)OC1N=C(c2ccccc2)c2cc(Cl)ccc2N(C)C1=O` (centres unmarked) [Example 4, 3-(4-acetamido)butyryloxy-7-chloro-1,3-dihydro-1-methyl-5-phenyl-2H-1,4-benzodiazepine-2-one]: in series [1], the LD50 was 1000 mg/kg. Moreover, the ED50 in series [2] (setting [7]) was 5 mg/kg; in series [2] (setting [8]), 2.2 mg/kg; in series [3] (setting [9]) it was 4 mg/kg; in series [3] (setting [10]), 0.7 mg/kg; in series [4] (setting [11]) it was 30 mg/kg; in series [5] (setting [12]), 19 mg/kg. Moreover, the ED50 in series [6] was 1.9 mg/kg.
In series [1], `CC(=O)NCC(=O)OC1N=C(c2ccccc2)c2cc(Cl)ccc2NC1=O` (centres unmarked) [Example 5, 3-acetamido-acetoxy-7-chloro-1,3-dihydro-5-phenyl-2H-1,4-benzodiazepine-2-one] yielded an LD50 of 1400 mg/kg. In addition, the ED50 in series [2] (setting [7]) turned out to be 6 mg/kg; in series [2] (setting [8]) it was 1.5 mg/kg; in series [3] (setting [9]), 12 mg/kg; in series [3] (setting [10]) it was 0.32 mg/kg; in series [4] (setting [11]) it was 34 mg/kg; in series [5] (setting [12]), 15 mg/kg. For the same molecule, in series [6], the ED50 came to 0.7 mg/kg.
As to `CC(=O)NCCCC(=O)OC1N=C(c2ccccc2Cl)c2cc(Cl)ccc2N(C)C1=O` (centres unmarked) [Example 6, 3-(4-acetamido)-butyryloxy-7-chloro-5-o-chlorophenyl-1,3-dihydro-1-methyl-2H-1,4-benzodiazepine-2-one], the LD50 in series [1] was > 1000 mg/kg. For the same molecule, the ED50 was determined as 0.2 mg/kg in series [2] (setting [7]); 0.16 mg/kg in series [2] (setting [8]); 5.5 mg/kg in series [3] (setting [9]); 0.032 mg/kg in series [3] (setting [10]); 19 mg/kg in series [4] (1 h, at 60 minutes after drug treatment (c')); 2 mg/kg in series [5] (1 h, at 60 minutes after drug treatment (d')). Also, the ED50 in series [6] was 1.9 mg/kg.
With `O=C1Nc2ccc(Cl)cc2C(c2ccccc2)=NC1O` (centres unmarked) [Oxazepam, reference compound], the LD50 in series [1] was > 1500 mg/kg. In addition, the ED50 in series [2] (setting [7]) turned out to be 20 mg/kg; in series [2] (setting [8]), 5.5 mg/kg; in series [3] (setting [9]), 40 mg/kg; in series [3] (setting [10]) it was 4 mg/kg; in series [4] (setting [11]) it was 28 mg/kg; in series [5] (setting [12]), 25 mg/kg. Further, the ED50 in series [6] stood at 4.2 mg/kg.

One may read the LD50 as the dose expected to kill half of the subjects tested.

The values are drawn from patent US4487771A, “C-3 Substituted 1,4-benzodiazepines and pharmaceutical utilization thereof” (Medosan Industrie Biochimiche Riunite, S.p.A., priority 1983, dated 1984).
